Experimental findings from ChEMBL document CHEMBL5512674, “Novel Acyl Thiourea-Based Hydrophobic Tagging Degraders Exert Potent Anti-Influenza Activity through Two Distinct Endonuclease Polymerase Acidic-Targeted Degradation Pathways” (J Med Chem, 2024) are described below.

SMILES strings stand for the structures. Calls of active or inactive are those of the source. The rule behind the calls is not given here.

The target of series [1] is T1, von Hippel-Lindau disease tumor suppressor/Polymerase acidic protein (Influenza A virus (A/Puerto Rico/8/1934(H1N1))) (UniProt P03433+P40337). Kind of series: PROTAC activity at Influenza A virus A/WSN/33(H1N1) flag tagged Polymerase acidic protein/VHL (unknown origin) expressed in HEK293T cells assessed as degradation of PA expression at 5 uM incubated for 24 hrs by Western blotting analysis. It counts as cell-based. (In general: A western blot detects proteins with antibodies after separation by electrophoresis.)

The target of series [2] is T2, von Hippel-Lindau disease tumor suppressor/Polymerase basic protein 1 (Influenza A virus (strain A/Puerto Rico/8/1934 H1N1)) (UniProt P03431+P40337). The experiment in a line: PROTAC activity at Influenza A virus A/WSN/33(H1N1) flag tagged Polymerase basic protein 1/VHL (unknown origin) expressed in HEK293T cells assessed as degradation of PB1 expression at 1 ug/ml incubated for 24 hrs by Western blotting analysis. The series is classed as cell-based. Conditions: dose 1.0 µg/ml.

Series [3] deals with T3, von Hippel-Lindau disease tumor suppressor/Polymerase basic protein 2 (Influenza A virus (strain A/Puerto Rico/8/1934 H1N1)) (UniProt P40337+P03428). The experiment in a line: PROTAC activity at Influenza A virus A/WSN/33(H1N1) flag tagged Polymerase basic protein 2/VHL (unknown origin) expressed in HEK293T cells assessed as degradation of PB2 expression at 10 ug/ml incubated for 24 hrs by Western blotting analysis. It counts as cell-based. The following applies: dose 10.0 µg/ml.

Series [4] addresses T3, von Hippel-Lindau disease tumor suppressor/Polymerase basic protein 2 (Influenza A virus (strain A/Puerto Rico/8/1934 H1N1)). Kind of series: PROTAC activity at Influenza A virus A/WSN/33(H1N1) flag tagged Polymerase basic protein 2/VHL (unknown origin) expressed in HEK293T cells assessed as degradation of PB2 expression at 1 ug/ml incubated for 24 hrs by Western blotting analysis. It counts as cell-based. The following applies: dose 1.0 µg/ml.

Series [5] concerns Influenza A virus. The experiment in a line: Anti-influenza activity against Influenza A virus A/WSN/33(H1N1) infected in HEK293T cells assessed as reduction in virus-induced cytopathic effect incubated for 48 hrs by CCK-8 assay. The series is classed as functional, organism-based. The following applies: HEK-293T. Background: Protection from cytopathic effect is a common read-out in antiviral testing.

Series [6] addresses T2, von Hippel-Lindau disease tumor suppressor/Polymerase basic protein 1 (Influenza A virus (strain A/Puerto Rico/8/1934 H1N1)). The experiment in a line: PROTAC activity at Influenza A virus A/WSN/33(H1N1) flag tagged Polymerase basic protein 1/VHL (unknown origin) expressed in HEK293T cells assessed as degradation of PB1 expression at 10 ug/ml incubated for 24 hrs by Western blotting analysis. It counts as cell-based. The following applies: dose 10.0 µg/ml.

Series [7] can be described thus: Selectivity index, ratio of CC50 for cytotoxicity against human HEK293T cells to EC50 for anti-influenza activity against Influenza A virus A/WSN/33(H1N1) infected in HEK293T cells assessed as reduction in virus-induced cytopathic effect. The series is classed as toxicity, cell-based. The following applies: read-out: Ratio CC50/EC50.
Series [8] can be described thus: Cytotoxicity against human HEK293T cells assessed as reduction in cell viability incubated for 48 hrs by CCK-8 assay. It counts as toxicity, cell-based, HEK-293T. Background: Tetrazolium assays rely on reduction of a dye to a coloured formazan, in cell work by metabolically active cells.
In series [9] the target is T1, von Hippel-Lindau disease tumor suppressor/Polymerase acidic protein (Influenza A virus (A/Puerto Rico/8/1934(H1N1))). The experiment in a line: PROTAC activity at Influenza A virus A/WSN/33(H1N1) flag tagged Polymerase acidic protein/VHL (unknown origin) expressed in HEK293T cells assessed as degradation of PA expression at 10 uM incubated for 24 hrs by Western blotting analysis. It counts as cell-based.

In general, EC50 refers to the concentration needed to bring the measured effect to its halfway point. For orientation: CC50 means the concentration that lowers cell viability or growth by half.

T3 sequence (P03428 whole entry, looked up): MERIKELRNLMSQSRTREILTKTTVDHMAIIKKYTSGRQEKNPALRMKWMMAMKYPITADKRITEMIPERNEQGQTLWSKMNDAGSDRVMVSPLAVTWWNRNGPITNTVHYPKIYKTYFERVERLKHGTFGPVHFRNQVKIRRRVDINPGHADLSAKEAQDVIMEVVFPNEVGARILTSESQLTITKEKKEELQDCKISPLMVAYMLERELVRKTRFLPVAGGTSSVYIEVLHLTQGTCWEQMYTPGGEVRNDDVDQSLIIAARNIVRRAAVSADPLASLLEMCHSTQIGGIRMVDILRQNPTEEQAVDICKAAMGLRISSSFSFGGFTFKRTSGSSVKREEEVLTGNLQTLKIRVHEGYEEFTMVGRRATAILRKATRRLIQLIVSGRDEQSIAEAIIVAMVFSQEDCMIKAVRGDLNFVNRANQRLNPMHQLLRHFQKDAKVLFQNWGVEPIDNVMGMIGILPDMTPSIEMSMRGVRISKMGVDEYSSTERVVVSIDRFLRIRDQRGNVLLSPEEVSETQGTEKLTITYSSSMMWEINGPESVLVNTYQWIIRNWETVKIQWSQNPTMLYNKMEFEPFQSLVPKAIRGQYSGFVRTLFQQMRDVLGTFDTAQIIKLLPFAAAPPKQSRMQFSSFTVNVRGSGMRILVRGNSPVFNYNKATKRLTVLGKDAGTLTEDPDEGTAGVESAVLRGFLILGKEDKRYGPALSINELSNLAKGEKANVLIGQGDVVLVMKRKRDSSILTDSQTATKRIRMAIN
T3 sequence (P40337 whole entry, looked up): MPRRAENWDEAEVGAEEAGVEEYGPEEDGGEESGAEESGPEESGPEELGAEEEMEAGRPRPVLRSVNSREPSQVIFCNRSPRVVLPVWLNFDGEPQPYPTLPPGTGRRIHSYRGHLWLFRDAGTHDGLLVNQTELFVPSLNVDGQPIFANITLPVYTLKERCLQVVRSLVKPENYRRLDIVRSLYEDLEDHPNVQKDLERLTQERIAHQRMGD
T2 sequence (P03431 whole entry, looked up): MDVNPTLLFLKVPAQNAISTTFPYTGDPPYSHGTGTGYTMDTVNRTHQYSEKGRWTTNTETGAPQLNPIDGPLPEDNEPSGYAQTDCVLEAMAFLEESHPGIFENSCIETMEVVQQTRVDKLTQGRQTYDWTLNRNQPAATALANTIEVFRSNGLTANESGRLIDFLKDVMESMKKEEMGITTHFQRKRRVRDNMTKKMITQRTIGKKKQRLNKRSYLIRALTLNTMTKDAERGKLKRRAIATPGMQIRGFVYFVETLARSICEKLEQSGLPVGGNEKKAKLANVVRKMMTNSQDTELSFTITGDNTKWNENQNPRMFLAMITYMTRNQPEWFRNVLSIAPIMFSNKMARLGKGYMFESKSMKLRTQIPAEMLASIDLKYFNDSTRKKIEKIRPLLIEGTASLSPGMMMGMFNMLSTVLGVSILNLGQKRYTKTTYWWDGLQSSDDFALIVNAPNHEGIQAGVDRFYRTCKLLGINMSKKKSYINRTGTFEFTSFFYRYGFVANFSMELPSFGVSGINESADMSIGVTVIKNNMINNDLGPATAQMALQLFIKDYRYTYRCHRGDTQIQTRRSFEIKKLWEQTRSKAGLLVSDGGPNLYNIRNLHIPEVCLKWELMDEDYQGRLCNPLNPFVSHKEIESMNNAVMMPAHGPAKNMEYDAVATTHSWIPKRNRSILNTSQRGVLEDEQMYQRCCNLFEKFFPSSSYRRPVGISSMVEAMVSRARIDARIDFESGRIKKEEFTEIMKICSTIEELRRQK
T2 sequence (P40337 whole entry, looked up): as the sequence (P40337 whole entry, looked up) above

For `CCCCCCCCNC(=O)[C@H](CCCCNC(=O)OC(C)(C)C)NC(=O)OC(C)(C)C`, the result in series [1] was inactive.
With `CC(C)(C)OC(=O)N[C@@H](Cc1c[nH]c2ccccc12)C(=O)NCCCC(=O)Nc1ccc(NC(=S)NC(=O)c2ccc(C(C)(C)C)cc2)cc1`, the result in series [2], in series [3], in series [4] and in [6] was inactive. The concentration giving a half-maximal response (EC50) in [5] came out at 572 nM. Moreover, in series [7], the selectivity ratio was 167. The cytotoxic concentration (CC50) at 48 h in series [8] stood at 95400 nM.
Turning to `CC(C)(C)OC(=O)N[C@@H](Cc1c[nH]c2ccccc12)C(=O)NCCCCCCCCCCC(=O)Nc1ccc(NC(=S)NC(=O)c2ccc(C(C)(C)C)cc2)cc1`, the result in series [2], in [3], in series [4] and in series [6] was inactive. The concentration giving a half-maximal response (EC50) in series [5] was determined as 383 nM. For the same molecule, in [7], the selectivity ratio came out at 109. Besides, in series [8], the CC50 at 48 h worked out at 41800 nM.
Regarding `CC(C)(C)c1ccc(C(=O)NC(=S)Nc2ccc(NC(=O)CCCCCCCNC(=O)[C@@H](N)CC(N)=O)cc2)cc1`, the result in series [1] was inactive.
As to `CC(C)(C)OC(=O)N[C@@H](Cc1c[nH]c2ccccc12)C(=O)NCCCCCCC(=O)Nc1ccc(NC(=S)NC(=O)c2ccc(C(C)(C)C)cc2)cc1`, the result in [2], in series [3], in [4] and in series [6] was inactive. Moreover, the EC50 in series [5] worked out at 169 nM. Also, the selectivity ratio in series [7] is greater than 592. In [8], the cytotoxic concentration (CC50) at 48 h was greater than 100000 nM.
For the molecule `CC(C)(C)OC(=O)N[C@@H](Cc1c[nH]c2ccccc12)C(=O)NCCCCCCCCCC(=O)Nc1ccc(NC(=S)NC(=O)c2ccc(C(C)(C)C)cc2)cc1`, the outcome in series [2], in series [3], in [4] and in [6] was inactive. Also, in series [9], the result was Active. The half-maximal effective concentration (EC50) in series [5] turned out to be 64 nM. The selectivity ratio in series [7] was greater than 1560. Also, the half-maximal cytotoxic concentration (CC50) at 48 h in series [8] was greater than 100000 nM.
`CC(C)(C)OC(=O)/N=C(\NCCC[C@H](NC(=O)OC(C)(C)C)C(=O)NCCCCCCCC(=O)Nc1ccc(NC(=S)NC(=O)c2ccc(C(C)(C)C)cc2)cc1)NC(=O)OC(C)(C)C`: the result in [2], in series [3], in series [4] and in series [6] was inactive. The EC50 in [5] amounted to 374 nM. In addition, the selectivity ratio in series [7] is greater than 267. The CC50 at 48 h in [8] was greater than 100000 nM.
Regarding `CC(C)(C)OC(=O)NCCCC[C@H](NC(=O)OC(C)(C)C)C(=O)NCCOCCOCC(=O)Nc1ccc(NC(=S)NC(=O)c2ccc(C(C)(C)C)cc2)cc1`, in series [5], the EC50 was greater than 25000 nM.
For `CC(C)(C)c1ccc(C(=O)NC(=S)Nc2ccc(NC(=O)CCCCCCCCCN)cc2)cc1`, in series [5], the 50% effective concentration (EC50) worked out at 298 nM. Further, the selectivity ratio in series [7] was determined as 21.1. Besides, the CC50 at 48 h in [8] is less than 6290 nM.
For the molecule `CC(C)(C)OC(=O)N[C@@H](Cc1c[nH]c2ccccc12)C(=O)NCCCCCCCCCCCC(=O)Nc1ccc(NC(=S)NC(=O)c2ccc(C(C)(C)C)cc2)cc1`, the result in series [2], in series [3], in series [4] and in [6] was inactive. In addition, the EC50 in [5] was determined as 974 nM. The selectivity ratio in series [7] is greater than 103. Besides, the 50% cytotoxic concentration (CC50) at 48 h in series [8] was greater than 100000 nM.
Turning to `CC(C)(C)OC(=O)N[C@@H](Cc1c[nH]c2ccccc12)C(=O)NCCCCCCCC(=O)Nc1ccc(NC(=S)NC(=O)c2ccc(C(C)(C)C)cc2)cc1`, the outcome in series [2], in [3], in series [4] and in series [6] was inactive. In addition, in [5], the EC50 was determined as 43 nM. Besides, the selectivity ratio in series [7] was greater than 2330. Besides, in [8], the CC50 at 48 h was greater than 100000 nM.
On to `CC(C)(C)OC(=O)N[C@@H](Cc1c[nH]c2ccccc12)C(=O)Nc1ccc(NC(=S)NC(=O)c2ccc(C(C)(C)C)cc2)cc1`, for which the outcome in series [2], in [3], in series [4] and in series [6] was inactive. In addition, in series [5], the EC50 worked out at 407 nM. Besides, in [7], the selectivity ratio was greater than 246. Also, the cytotoxic concentration (CC50) at 48 h in series [8] was greater than 100000 nM.
Take `CC(C)(C)OC(=O)NCCCC[C@H](NC(=O)OC(C)(C)C)C(=O)NCCCCCCCCCC(=O)Nc1ccc(NC(=S)NC(=O)c2ccc(C(C)(C)C)cc2)cc1`: the outcome in series [2], in [3], in series [4] and in series [6] was inactive. In addition, the result in series [9] was Active. For the same molecule, the half-maximal effective concentration (EC50) in series [5] worked out at 45 nM. In addition, in series [7], the selectivity ratio was greater than 2220. For the same molecule, the CC50 at 48 h in series [8] is greater than 100000 nM.
For `CC(C)(C)OC(=O)N[C@@H](Cc1c[nH]c2ccccc12)C(=O)NCCCCCC(=O)Nc1ccc(NC(=S)NC(=O)c2ccc(C(C)(C)C)cc2)cc1`, the result in series [2], in [3], in [4] and in [6] was inactive. Besides, the half-maximal effective concentration (EC50) in series [5] stood at 344 nM. Besides, the selectivity ratio in [7] is greater than 291. The CC50 at 48 h in series [8] was greater than 100000 nM.
Regarding `CC(C)(C)c1ccc(C(=O)NC(=S)Nc2ccc(NC(=O)CCCCCCN)cc2)cc1`, in [5], the half-maximal effective concentration (EC50) is greater than 44000 nM.
For the molecule `CC(C)(C)OC(=O)NCCCC[C@H](NC(=O)OC(C)(C)C)C(=O)NCCCCCCCCCCCC(=O)Nc1ccc(NC(=S)NC(=O)c2ccc(C(C)(C)C)cc2)cc1`, the result in [2], in series [3], in [4] and in [6] was inactive. For the same molecule, the concentration giving a half-maximal response (EC50) in series [5] was determined as 534 nM. Besides, the selectivity ratio in series [7] is greater than 187. In addition, the CC50 at 48 h in series [8] was greater than 100000 nM.
`CC(C)(C)c1ccc(C(=O)NC(=S)Nc2ccc(NC(=O)CCCCCCCCN)cc2)cc1`: the EC50 in series [5] was 365 nM. The selectivity ratio in series [7] was determined as 17.7. Besides, the CC50 at 48 h in series [8] was 6470 nM.
In the case of `CC(C)(C)OC(=O)NCCCC[C@H](NC(=O)OC(C)(C)C)C(=O)NCCCCCCCCCCC(=O)Nc1ccc(NC(=S)NC(=O)c2ccc(C(C)(C)C)cc2)cc1`, the outcome in series [2], in series [3], in series [4] and in [6] was inactive. Besides, in series [9], the outcome was Active. In [5], the EC50 amounted to 186 nM. Moreover, in series [7], the selectivity ratio was 400. The CC50 at 48 h in series [8] was determined as 74500 nM.
Regarding `CC(C)(C)OC(=O)NCCCC[C@H](NC(=O)OC(C)(C)C)C(=O)NCCCCCCC(=O)Nc1ccc(NC(=S)NC(=O)c2ccc(C(C)(C)C)cc2)cc1`, the result in series [2], in series [3], in series [4] and in [6] was inactive. In addition, the result in series [9] was Active. In addition, the half-maximal effective concentration (EC50) in series [5] came out at 75 nM. For the same molecule, the selectivity ratio in [7] is greater than 1330. Also, the CC50 at 48 h in [8] was greater than 100000 nM.
As for `CC(C)(C)c1ccc(C(=O)NC(=S)Nc2ccc(NC(=O)CCCCCCCN)cc2)cc1`, the EC50 in [5] is greater than 43000 nM.
